Entries after “also recorded” stand apart in the source; their conditions may differ. Square brackets hold non-standard residues; d marks the D form. Peptide text beside a SMILES is read from it.
Experiments:
male ICR-CD1 mice = assay: Neuroprotection after iv administration against focal cerebral ischaemia, transient MCAO model; type: in vivo
Procedure: Transient ischemia in adult mice. Using male ICR-CD1 mice (6 weeks old; 18-37 g; Harlan), we provoked ischemia by introducing a filament from the common carotid artery into the internal carotid and advancing it into the arterial circle, thereby occluding the middle cerebral artery. We measured regional cerebral blood flow by laser Doppler flowmetry, with a probe fixed on the skull throughout the ischemia until 10 min after reperfusion. Rectal temperature was measured and maintained at 37° C. The mice were killed 48 h after reperfusion. Serial cryostat sections 20 μm thick were traced using a computer-microscope system equipped with the Neurolucida program (MicroBrightField) and the volumes of the ischemic area and of the whole brain were calculated (blinded) with the Neuroexplorer program. XG-102 0.3=0.3 mg/kg, XG-102 1=1 mg/kg, XG-102 5=5 mg/kg
The infarct volume sizes (mm^3) after bolus iv administration of placebo and XG-102 0.3, […] 6 hours after reperfusion (30 minutes clamp) in an adult mice model were as follows.

guinea pigs = assay: Treatment of noise trauma, hearing threshold shifts by auditory brainstem response; type: in vivo
Procedure: Changes of the hearing threshold level (dB sound pressure level) in guinea pigs following noise trauma (120 dB at 6 kHz during 30 minutes) at 8 kHz, the maximally impacted frequency, measured 20 minutes (temporary threshold shift, TTS, grey) and 15 days post noise exposure (permanent threshold shift). Guinea pigs received D-TAT-IB1(s) in a hyaluronic acid gel deposited onto the cochlear round window membrane either 30 minutes before, 30 minutes after or 4 hours after noise trauma; untreated ears served as control. TTS was measured 20 minutes post noise trauma, while PTS (black), which corresponds to permanent hearing loss, was determined after 15 days.
D-TAT-IB1(s) was applied onto the round window membrane of the cochlea of 3 groups of guinea pigs (each group with 6 animals) in 2 microliters of a gel formulation of 2.6% buffered hyaluronic acid (Hylumed, Genzyme Corp.) at a concentration of 100 μM either 30 minutes before noise trauma (120 dB at 6 kHz during 30 minutes) or 30 minutes or 4 hours thereafter. Untreated ears served as control. Hearing threshold shifts were evaluated by auditory brainstem response measurements 20 minutes after noise trauma (temporary threshold shift, TTS) and 15 days following the trauma (permanent threshold shift, PTS). […] Thus, D-TAT-IB1(s) is a very effective otoprotective compound in case of noise trauma.

[1] = test system: cortical neuronal culture; assay: LDH release from cortical neuronal cultures following NMDA stimulation; type: cell-based, rat; settings: 5 μM peptide, 30 min pre-treatment, 12 h of 100 μM NMDA
Procedure: The neuroprotective effect of the D-TAT-IB (generic)(s)/D-JNKI1 peptide (SEQ ID NO: 12) was evaluated in sister cultures pre-treated for 30 min with the indicated concentrations of peptides or MK-801 before continuous exposure to 100 μM NMDA.
Cortical neuronal culture. We dissected small pieces of cortex from the brains of two day old rat pups, incubated them with 200 units of papain for 30 min at 34° C., and then plated the neurons at densities of approximately 1×10^6 cells/plate on dishes pre-coated with 100 μg/ml poly-D-lysine. The plating medium consisted of B27/Neurobasal (Life Technologies, Gaithersburg, Md.) supplemented with 0.5 mM glutamine, 100 U/ml penicillin and 100 ug/ml streptomycin.
Lactate dehydrogenate (LDH) cytotoxicity assay. LDH released into the bathing medium 12, 24 and 48 h after NMDA administration was measured using the Cytotox 96 non- radioactive cytotoxicity assay kit (PROMEGA®, WI) (see FIG. 5).

[2] = test system: endogenous JNK activity in HepG2 cells; assay: Inhibition of endogenous JNK activity in HepG2 cells, AlphaScreen all-in one well approach; type: cell-based
Procedure: HepG2 cells were seeded at 3'000 cells/well the day prior the experiment. Then, increasing concentrations of either interleukin-1β [IL-1β(ν)] or tumor necrosis factor α [TNFα(●)] (a) were added to activate JNK for 30 minutes. Cells were lysed in 20 mM Hepes, 0.5% Tween pH 7.4 and processed for AlphaScreen JNK. (b) Z′ for the JNK activity induced by 10 ng/ml IL-1β and measured in 384 wells/plate (n=96). (c) Inhibition of endogenous IL-1β-induced JNK activity with chemical JNK inhibitors [staurosporin (°) and SP600125 (●)]. (d) Effect of peptidic inhibitors L-TAT-IB1(s) according to SEQ ID NO: 9 [here abbreviated as L-JNKi (ν)) and D-TAT-IB1(s) according to SEQ ID NO: 11 (here abbreviated as D-JNKi (♦)) and JBDs (●) (corresponds to L-JNKI without the TAT sequence)] on IL-1α dependent JNK activity. All panels are representative of three independent experiments (n=3).
Methods: Alphascreen Kinase Assay
Principle: AlphaScreen is a non-radioactive bead-based technology used to study biomolecular interactions in a microplate format. The acronym ALPHA stands for Amplified Luminescence Proximity Homogenous Assay. […]
Kinase reagents (B-GST-cJun, anti P-cJun antibody and active JNK3) were first diluted in kinase buffer (20 mM Tris-HCl pH 7.6, 10 mM MgCl2, 1 mM DTT, 100 μM Na3VO4, 0.01% Tween-20) and added to wells (15 μl). […] AlphaScreen signal was analyzed directly on the Fusion or En Vision apparatus.

SMILES: CC(C)C[C@@H](NC(=O)[C@@H](Cc1ccccc1)NC(=O)[C@H]1CCCN1C(=O)[C@@H](CCC(N)=O)NC(=O)[C@H](NC(=O)[C@H]1CCCN1C(=O)[C@@H](CCCNC(=N)N)NC(=O)[C@@H](CO)NC(=O)[C@@H](CCC(N)=O)NC(=O)[C@H](N)CC(=O)O)C(C)C)C(=O)N[C@H](CC(N)=O)C(=O)N[C@H](CC(C)C)C(=O)N[C@@H](C(=O)N[C@@H](C(=O)N1CCC[C@@H]1C(=O)N[C@H](CCCNC(=N)N)C(=O)N[C@H](CCCCN)C(=O)N1CCC[C@@H]1C(=O)N[C@H](CCCNC(=N)N)C(=O)N1CCC[C@@H]1C(=O)N1CCC[C@@H]1C(=O)N[C@H](CCCNC(=N)N)C(=O)N[C@H](CCCNC(=N)N)C(=O)N[C@H](CCCNC(=N)N)C(=O)N[C@H](CCC(N)=O)C(=O)N[C@H](CCCNC(=N)N)C(=O)N[C@H](CCCNC(=N)N)C(=O)N[C@H](CCCCN)C(=O)N[C@H](CCCCN)C(=O)N[C@H](CCCNC(=N)N)C(=O)NCC(=O)O)[C@H](C)O)[C@H](C)O [D-TAT-IB1(s)] (H-[dD][dQ][dS][dR][dP][dV][dQ][dP][dF][dL][dN][dL][dT][dT][dP][dR][dK][dP][dR][dP][dP][dR][dR][dR][dQ][dR][dR][dK][dK][dR]G-OH)
- infarct volume sizes, moyenne (male ICR-CD1 mice; 0.3 mg/kg bolus iv 6 hours after reperfusion (30 minutes clamp), n = 5): 16 mm^3
- infarct volume sizes, moyenne (male ICR-CD1 mice; 1 mg/kg bolus iv 6 hours after reperfusion (30 minutes clamp), n = 1): 16 mm^3
- infarct volume sizes, moyenne (male ICR-CD1 mice; XG102 3, bolus iv 6 hours after reperfusion (30 minutes clamp), n = 5): 15 mm^3
- neuroprotection (male ICR-CD1 mice; i.v. administration, mice killed 48 h after reperfusion): provides efficient neuroprotection
- protection against permanent hearing loss (PTS, 15 days) (guinea pigs; 100 μM in hyaluronic acid gel on round window membrane, 30 minutes before, 30 minutes or 4 hours after noise trauma): protects substantially against permanent hearing loss; also recorded: protected against permanent hearing loss even if applied after exposure to excessive noise
- PTS in treated ears versus untreated control ears (guinea pigs; administration 30 minutes and 4 hours post trauma, 8 kHz): significantly lower
- degenerative changes due to NMDA exposure (LDH release above controls) [1]: degenerative changes due to NMDA exposure were completely inhibited
- inhibition of IL-1β-induced endogenous JNK activity [2]: effectively inhibits JNK activity, even better than L-TAT-IB1(s)

From US8748395B2, “Cell-permeable peptide inhibitors of the JNK signal transduction pathway” (Xigen Inflammation Ltd., priority 2006, dated 2014)
